Experimental data published in patent US11618743B2, “Herbicidal compounds” (SYNGENTA PARTICIPATIONS AG, priority 2017, dated 2023).

Legend:
Assay type in all cases: in vivo
[1] = system: Amaranthus palmeri (AMAPA); test: Post-emergence efficacy, Method A; conditions: Application rate 500 g/Ha, evaluated after 13 days; for Control of weed species AMAPA after post-emergence application (100=total damage to plant; 0=no damage to plant): Method A
Method in brief: (§1)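 Plants grown 14 days in pots of standard soil in a glasshouse (24/16 °C day/night, 14 h light, 65% humidity), then sprayed post-emergence with compound formulated in acetone and IF50 and diluted in 0.25% or 1% Empicol ESC70 + 1% ammonium sulphate. Damage scored after 13 days, 0–100 (100 = total damage).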

[2] = system: Chenopodium album (CHEAL); test: Post-emergence efficacy, Method A; conditions: Application rate 500 g/Ha, evaluated after 13 days; for Control of weed species CHEAL after post-emergence application (100=total damage to plant; 0=no damage to plant): Method A
Method in brief: as §1

[3] = system: Digitaria sanguinalis (DIGSA); test: Post-emergence efficacy, Method A; conditions: Application rate 500 g/Ha, evaluated after 13 days; for Control of weed species DIGSA after post-emergence application (100=total damage to plant; 0=no damage to plant): Method A
Method in brief: as §1

[4] = system: Echinochloa crus-galli (ECHCG); test: Post-emergence efficacy, Method A; conditions: Application rate 500 g/Ha, evaluated after 13 days; for Control of weed species ECHCG after post-emergence application (100=total damage to plant; 0=no damage to plant): Method A
Method in brief: as §1

Eleusine indica (ELEIN) = test: Post-emergence efficacy, Method A; conditions: Application rate 500 g/Ha, evaluated after 13 days; for Control of weed species ELEIN after post-emergence application (100=total damage to plant; 0=no damage to plant): Method A
Method in brief: as §1

[5] = system: Euphorbia heterophylla (EPHHL); test: Post-emergence efficacy, Method A; conditions: Application rate 500 g/Ha, evaluated after 13 days; for Control of weed species EPHHL after post-emergence application (100=total damage to plant; 0=no damage to plant): Method A
Method in brief: as §1

[6] = system: Ipomoea hederacea (IPOHE); test: Post-emergence efficacy, Method A; conditions: Application rate 500 g/Ha, evaluated after 13 days; for Control of weed species IPOHE after post-emergence application (100=total damage to plant; 0=no damage to plant): Method A
Method in brief: as §1

Lolium perenne (LOLPE) [7] = test: Post-emergence efficacy, Method A; conditions: Application rate 500 g/Ha, evaluated after 13 days; for Control of weed species LOLPE after post-emergence application (100=total damage to plant; 0=no damage to plant): Method A
Method in brief: as §1

Setaria faberi (SETFA) [8] = test: Post-emergence efficacy, Method A; conditions: Application rate 500 g/Ha, evaluated after 13 days; for Control of weed species SETFA after post-emergence application (100=total damage to plant; 0=no damage to plant): Method A
Method in brief: as §1

[9] = system: Amaranthus retroflexus (AMARE); test: Post-emergence efficacy, Method B; conditions: 360 h, Application Rate 1000 g/Ha, evaluated after 15 days, read-out: Control of weed species after post-emergence application, AMARE (100=total damage to plant; 0=no damage to plant)
Description: (§2) An “instant formulation”, known as the IF50, containing 50 g/L of the “technical” (i.e. unformulated) active ingredient was prepared by dissolving the active ingredient in a mixture of organic solvents and emulsifier, details of which are provided in the table. This IF50 was then mixed with a small, variable amount of acetone to aid dissolution, before addition of an aqueous solution of 1% v/v ammonium sulphate+1% v/v Empicol ESC70 (Sodium lauryl ether sulphate) adjuvant, as the aqueous diluent, to form an aqueous spray solution which contains a predetermined concentration of the active ingredient (which varies depending on the application rate of the active ingredient to the plants).
(§3) Composition of the mixture of organic solvents and emulsifier used as a base for the instant formulation.
(§4) This aqueous spray solution was then sprayed onto the plants, after about 12 days' cultivation. The plants were grown from seeds sown in standard soil, placed in a glasshouse under controlled conditions (at 24/18° C. or 20/16° C., day/night; 16 hours light; 65% humidity). After spray application the plants were then grown on in a glasshouse under the same conditions and watered twice daily. After 15 days the test was evaluated (100=total damage to plant; 0=no damage to plant).
(§5) Ipomoea hederacea (IPOHE), Euphorbia heterophylla (EPHHL), Chenopodium album (CHEAL), 20 Amaranthus retroflexus (AMARE), Lolium perenne (LOLPE), Digitaria sanguinalis (DIGSA), Eleusine indica (ELEIN), Echinochloa crus-galli (ECHCG), Setaria faberi (SETFA)

[10] = system: Chenopodium album (CHEAL); test: Post-emergence efficacy, Method B; conditions: 360 h, Method B, Application Rate 1000 g/Ha, evaluated after 15 days, read-out: Control of weed species after post-emergence application, CHEAL (100=total damage to plant; 0=no damage to plant)
Description: as §2, §3, §4, §5

[11] = system: Digitaria sanguinalis (DIGSA); test: Post-emergence efficacy, Method B; conditions: 360 h, Application Rate 1000 g/Ha, evaluated after 15 days, read-out: Control of weed species after post-emergence application, DIGSA (100=total damage to plant; 0=no damage to plant)
Description: as §2, §3, §4, §5

[12] = system: Echinochloa crus-galli (ECHCG); test: Post-emergence efficacy, Method B; conditions: 360 h, Method B, Application Rate 1000 g/Ha, evaluated after 15 days, read-out: Control of weed species after post-emergence application, ECHCG (100=total damage to plant; 0=no damage to plant)
Description: as §2, §3, §4, §5

[13] = system: Ipomoea hederacea (IPOHE); test: Post-emergence efficacy, Method B; conditions: 360 h, Method B, Application Rate 1000 g/Ha, evaluated after 15 days, read-out: Control of weed species after post-emergence application, IPOHE (100=total damage to plant; 0=no damage to plant)
Description: as §2, §3, §4, §5

Lolium perenne (LOLPE) [14] = test: Post-emergence efficacy, Method B; conditions: 360 h, Method B, Application Rate 1000 g/Ha, evaluated after 15 days, read-out: Control of weed species after post-emergence application, LOLPE (100=total damage to plant; 0=no damage to plant)
Description: as §2, §3, §4, §5

Setaria faberi (SETFA) [15] = test: Post-emergence efficacy, Method B; conditions: 360 h, Application Rate 1000 g/Ha, evaluated after 15 days, read-out: Control of weed species after post-emergence application, SETFA (100=total damage to plant; 0=no damage to plant)
Description: as §2, §3, §4, §5

[16] = 100=total damage to plant, 0=no damage

| SMILES | Control of weed species after post-emergence application, AMAPA [1, 16] | Control of weed species after post-emergence application, CHEAL [2, 16] | Control of weed species after post-emergence application, DIGSA [3, 16] | Control of weed species after post-emergence application, ECHCG [4, 16] | Control of weed species after post-emergence application, ELEIN (Eleusine indica (ELEIN); [16]) | Control of weed species after post-emergence application, EPHHL [5, 16] | Control of weed species after post-emergence application, IPOHE [6, 16] | Control of weed species after post-emergence application, LOLPE (Lolium perenne (LOLPE) [7]; [16]) | Control of weed species after post-emergence application, SETFA (Setaria faberi (SETFA) [8]; [16]) | further results |
| --- | --- | --- | --- | --- | --- | --- | --- | --- | --- | --- |
| COP(=O)(C[n+]1ccc(-c2ccncn2)cn1)OC.O=S(=O)([O-])C(F)(F)F [Compound A237] | 60 | 10 | 50 | 10 | 70 | 0 | 50 | 10 | 20 | – |
| O=C(O)CC[n+]1ccc(-c2ncc(Cl)c(=O)[nH]2)cn1 [Compound A161, 3-[4-(5-chloro-6-oxo-1H-pyrimidin-2-yl)pyridazin-1-ium-1-yl]propanoic acid 2,2,2-trifluoroacetate] | 30 | 70 | 20 | 20 | 20 | 50 | 20 | 10 | 10 | – |
| COc1cc(C)nc(-c2cc[n+](CCS(=O)(=O)[O-])nc2)n1 [Compound A94] | – | – | – | – | – | – | – | – | – | Control of weed species AMAPA after post-emergence application (100=total damage to plant; 0=no damage to plant) [1]: 70; Control of weed species CHEAL after post-emergence application (100=total damage to plant; 0=no damage to plant) [2]: 90; Control of weed species DIGSA after post-emergence application (100=total damage to plant; 0=no damage to plant) [3]: 30; Control of weed species ECHCG after post-emergence application (100=total damage to plant; 0=no damage to plant) [4]: 30; Control of weed species ELEIN after post-emergence application (100=total damage to plant; 0=no damage to plant) (Eleusine indica (ELEIN)): 20; Control of weed species EPHHL after post-emergence application (100=total damage to plant; 0=no damage to plant) [5]: 40; Control of weed species IPOHE after post-emergence application (100=total damage to plant; 0=no damage to plant) [6]: 30; Control of weed species LOLPE after post-emergence application (100=total damage to plant; 0=no damage to plant) (Lolium perenne (LOLPE) [7]): 20; Control of weed species SETFA after post-emergence application (100=total damage to plant; 0=no damage to plant) (Setaria faberi (SETFA) [8]): 40 |
| O=c1cc(-c2cc[n+](CCCS(=O)(=O)[O-])nc2)nc[nH]1 [Compound A116] | – | – | – | – | – | – | – | – | – | Control of weed species AMAPA after post-emergence application (100=total damage to plant; 0=no damage to plant) [1]: 100; Control of weed species CHEAL after post-emergence application (100=total damage to plant; 0=no damage to plant) [2]: 80; Control of weed species DIGSA after post-emergence application (100=total damage to plant; 0=no damage to plant) [3]: 30; Control of weed species ECHCG after post-emergence application (100=total damage to plant; 0=no damage to plant) [4]: 20; Control of weed species ELEIN after post-emergence application (100=total damage to plant; 0=no damage to plant) (Eleusine indica (ELEIN)): 20; Control of weed species EPHHL after post-emergence application (100=total damage to plant; 0=no damage to plant) [5]: 50; Control of weed species IPOHE after post-emergence application (100=total damage to plant; 0=no damage to plant) [6]: 10; Control of weed species LOLPE after post-emergence application (100=total damage to plant; 0=no damage to plant) (Lolium perenne (LOLPE) [7]): 10; Control of weed species SETFA after post-emergence application (100=total damage to plant; 0=no damage to plant) (Setaria faberi (SETFA) [8]): 30 |
| N[C@H](CC[n+]1ccc(-c2ccncn2)cn1)C(=O)O [Compound A235] | 10 | 40 | 40 | 30 | 10 | 20 | 20 | 0 | 30 | – |
| Nc1cc(-c2cc[n+](CCS(=O)(=O)[O-])nc2)nc(N)n1 [Compound A187] | – | – | – | – | – | – | – | – | – | pest or weed control at 500 g/ha ([1]; Amaranthus palmeri, post-emergence, 312 h, 100=total damage to plant, 0=no damage, read-out: Control of weed species after post-emergence application, AMAPA): 50%; pest or weed control at 500 g/ha ([2]; Chenopodium album, post-emergence, 312 h, 100=total damage to plant, 0=no damage, read-out: Control of weed species after post-emergence application, CHEAL): 40%; pest or weed control at 500 g/ha ([3]; Digitaria sanguinalis, post-emergence, 312 h, 100=total damage to plant, 0=no damage, read-out: Control of weed species after post-emergence application, DIGSA): 20%; pest or weed control at 500 g/ha ([4]; Echinochloa crus-galli, post-emergence, 312 h, 100=total damage to plant, 0=no damage, read-out: Control of weed species after post-emergence application, ECHCG): 20%; pest or weed control at 500 g/ha (Eleusine indica (ELEIN); Eleusine indica, post-emergence, 312 h, 100=total damage to plant, 0=no damage, read-out: Control of weed species after post-emergence application, ELEIN): 10%; pest or weed control at 500 g/ha ([5]; Euphorbia heterophylla, post-emergence, 312 h, 100=total damage to plant, 0=no damage, read-out: Control of weed species after post-emergence application, EPHHL): 50%; pest or weed control at 500 g/ha ([6]; Ipomoea hederacea, post-emergence, 312 h, 100=total damage to plant, 0=no damage, read-out: Control of weed species after post-emergence application, IPOHE): 20%; pest or weed control at 500 g/ha (Lolium perenne (LOLPE) [7]; Lolium perenne, post-emergence, 312 h, 100=total damage to plant, 0=no damage, read-out: Control of weed species after post-emergence application, LOLPE): 10%; pest or weed control at 500 g/ha (Setaria faberi (SETFA) [8]; Setaria faberi, post-emergence, 312 h, 100=total damage to plant, 0=no damage, read-out: Control of weed species after post-emergence application, SETFA): 10% |
| N#C[N-]C(=O)CC[n+]1ccc(-c2ncccn2)cn1 [Compound A226] | – | – | – | – | – | – | – | – | – | pest or weed control at 1000 g/ha [9]: 100%; pest or weed control at 1000 g/ha [10]: 100%; pest or weed control at 1000 g/ha [11]: 100%; pest or weed control at 1000 g/ha [12]: 100%; pest or weed control at 1000 g/ha [13]: 100%; pest or weed control at 1000 g/ha (Lolium perenne (LOLPE) [14]): 70%; pest or weed control at 1000 g/ha (Setaria faberi (SETFA) [15]): 70% |
| NC(=O)c1cnc(-c2cc[n+](CCC(=O)O)nc2)cn1 [Compound A202, 3-[4-(5-carbamoylpyrazin-2-yl)pyridazin-1-ium-1-yl]propanoic acid 2,2,2-trifluoroacetate] | 100 | 90 | 60 | 80 | 20 | 100 | 60 | 70 | 70 | – |
